Test results reported in ChEMBL document CHEMBL4316655, “Sesquiterpenoids from the Endophytic Fungus Rhinocladiella similis” (J Nat Prod, 2019).
≈ marks a conversion by molar mass, not a printed value.

Assays:
[1] = test system: L5178Y; experiment: Cytotoxicity against mouse L5178Y cells by MTT assay; assay type: functional, cell-based
[2] = test system: Staphylococcus aureus; experiment: Antibacterial activity against Staphylococcus aureus ATCC 29213 by broth microdilution method; assay type: functional
[3] = test system: Enterococcus faecium; experiment: Antibacterial activity against Enterococcus faecium ATCC 35667 by broth microdilution method; assay type: functional
[4] = test system: Klebsiella pneumoniae; experiment: Antibacterial activity against Klebsiella pneumoniae ATCC 13883 by broth microdilution method; assay type: functional

SMILES | IC50 [1] [µM] | MIC [2] [µM] | MIC [3] [µM] | MIC [4] [µM]
CC(C)[C@H]1CC[C@@](O)(COC(=O)C2=C[C@@H]3[C@@H](C(C)C)CC[C@@](O)(CCl)[C@H]3C(=O)OC2)[C@H]2C(=O)OCC(C(=O)O)=C[C@H]12 | 5 |  |  | 
CC(C)[C@H]1CC[C@H](CO)[C@@H]2[C@@H]1C=C(C(=O)O)C[C@H]2O | 8.7 |  |  | 
CC(C)[C@H]1CCC(CO)=C[C@@H]1/C=C(\CO)C(=O)O [GLIOCLADIC ACID] | 24.4 |  |  | 
CC(C)[C@H]1CC[C@@](O)(CCl)[C@H]2C(=O)OCC(C(=O)O)=C[C@H]12 [HEPTELIDIC ACID CHLOROHYDRIN] |  | 50 (≈ 15.8 µg/mL) | 50 (≈ 15.8 µg/mL) | 100 (≈ 31.7 µg/mL)
